The source of these data is patent US10081624B2, “Heterocyclic compound” (Takeda Pharmaceutical Company Limited, priority 2014, dated 2018).

One test deals with T1, HDAC6 enzyme (Homo sapiens, UniProt Q9UBN7).
T1 construct: prepared by transducing full length HDAC1 and HDAC6 genes into Sf-9 insect cells; GST; purchased SignalChem; host or cells: Sf-9 insect cells
T1 sequence (Q9UBN7 1-1215): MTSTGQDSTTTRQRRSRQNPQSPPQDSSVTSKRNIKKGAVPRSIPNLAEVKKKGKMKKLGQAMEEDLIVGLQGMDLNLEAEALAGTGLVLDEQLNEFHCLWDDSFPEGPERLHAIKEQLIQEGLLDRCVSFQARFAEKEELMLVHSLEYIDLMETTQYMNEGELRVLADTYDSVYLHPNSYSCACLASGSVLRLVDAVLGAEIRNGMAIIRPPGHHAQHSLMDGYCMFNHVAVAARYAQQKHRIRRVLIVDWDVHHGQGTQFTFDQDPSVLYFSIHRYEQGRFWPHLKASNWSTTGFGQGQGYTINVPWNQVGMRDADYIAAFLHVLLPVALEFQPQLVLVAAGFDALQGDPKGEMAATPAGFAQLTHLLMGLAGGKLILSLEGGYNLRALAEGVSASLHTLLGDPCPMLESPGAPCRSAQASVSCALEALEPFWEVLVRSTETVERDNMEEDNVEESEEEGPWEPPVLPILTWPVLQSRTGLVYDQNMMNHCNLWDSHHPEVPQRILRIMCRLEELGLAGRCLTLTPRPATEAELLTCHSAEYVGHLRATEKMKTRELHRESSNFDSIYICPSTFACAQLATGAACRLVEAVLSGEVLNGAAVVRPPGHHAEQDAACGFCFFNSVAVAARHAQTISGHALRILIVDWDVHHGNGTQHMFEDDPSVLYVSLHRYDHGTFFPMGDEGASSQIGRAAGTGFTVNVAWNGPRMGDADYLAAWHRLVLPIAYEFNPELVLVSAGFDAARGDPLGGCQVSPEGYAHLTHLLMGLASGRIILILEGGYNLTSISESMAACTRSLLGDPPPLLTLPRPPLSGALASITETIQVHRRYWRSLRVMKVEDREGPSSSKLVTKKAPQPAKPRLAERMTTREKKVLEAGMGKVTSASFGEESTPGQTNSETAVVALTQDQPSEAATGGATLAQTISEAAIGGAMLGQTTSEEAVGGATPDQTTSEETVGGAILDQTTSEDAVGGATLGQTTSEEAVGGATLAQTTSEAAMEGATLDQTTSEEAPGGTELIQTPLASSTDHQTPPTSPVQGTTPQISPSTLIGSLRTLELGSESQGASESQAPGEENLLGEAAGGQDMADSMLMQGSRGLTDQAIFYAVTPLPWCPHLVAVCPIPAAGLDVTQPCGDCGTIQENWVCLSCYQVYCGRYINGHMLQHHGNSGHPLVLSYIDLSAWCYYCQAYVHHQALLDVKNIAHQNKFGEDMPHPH
Put plainly: HDAC6 enzyme inhibitory assay (HDAC-Glo I/II Assay kit). It is filed as biochemical. Conditions: 1 μM test compound; for inhibition at 1 µM: read-out: HDAC6 inhibitory rate (%) (1 μM). In outline:
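Luminescence read-out: 20 min after adding HDAC-Glo substrate-developer at room temperature. Before that, compound and Sf-9-expressed, GST-purified full-length HDAC1 or HDAC6 sat together 60 min in pH 7.5 Tris buffer. Inhibition is relative to no-enzyme wells taken as 100%.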

A further test deals with T2, HDAC1 enzyme (Homo sapiens, UniProt Q13547).
T2 construct: prepared by transducing full length HDAC1 and HDAC6 genes into Sf-9 insect cells; GST; purchased SignalChem; host or cells: Sf-9 insect cells
Put plainly: HDAC1 enzyme inhibitory assay (HDAC-Glo I/II Assay kit). It is filed as biochemical. The note with it: 1 μM test compound; for inhibition at 1 µM: read-out: HDAC1 inhibitory rate (%) (1 μM). Here is the method:
HDAC1 enzyme and HDAC6 enzyme each prepared by transducing full length HDAC1 and HDAC6 genes into Sf-9 insect cells and purifying by GST affinity column were purchased from SignalChem. Using these enzymes, HDAC1 and/or HDAC6 enzyme inhibitory activities of the compound of the present invention were evaluated. Enzymes were used after preserved at −70° C. HDAC1 or HDAC6 enzyme inhibitory activity of the compound of the present invention was measured using HDAC-Glo™ I/II Assay kit (Promega) according to the following experimental method. The test compound diluted with assay buffer (24 mM Tris-HCl (pH 7.5), 1 mM MgCl2, 0.35 mM KCl, 135 mM NaCl, 0.6 mM Glutathione, 0.01% Tween-20) was added to a 384-well plate by each 2 μL. Then, HDAC1 or HDAC6 enzyme solution diluted with assay buffer was added thereto by each 4 μL, and the plate was incubated at room temperature for 60 min. After incubated, HDAC substrate-Developer solution prepared according to Promega protocol attached to the assay kit was added to the 384-well plate by each 2 μL, and the enzyme reaction was started. After reacting at room temperature for 20 min, luminescence level was measured using plate reader Envision (PerkinElmer). The inhibitory activity of each compound was calculated as a relative activity value when luminescence level in wells without enzyme is considered as 100% inhibition.

T2 sequence (Q13547 whole entry): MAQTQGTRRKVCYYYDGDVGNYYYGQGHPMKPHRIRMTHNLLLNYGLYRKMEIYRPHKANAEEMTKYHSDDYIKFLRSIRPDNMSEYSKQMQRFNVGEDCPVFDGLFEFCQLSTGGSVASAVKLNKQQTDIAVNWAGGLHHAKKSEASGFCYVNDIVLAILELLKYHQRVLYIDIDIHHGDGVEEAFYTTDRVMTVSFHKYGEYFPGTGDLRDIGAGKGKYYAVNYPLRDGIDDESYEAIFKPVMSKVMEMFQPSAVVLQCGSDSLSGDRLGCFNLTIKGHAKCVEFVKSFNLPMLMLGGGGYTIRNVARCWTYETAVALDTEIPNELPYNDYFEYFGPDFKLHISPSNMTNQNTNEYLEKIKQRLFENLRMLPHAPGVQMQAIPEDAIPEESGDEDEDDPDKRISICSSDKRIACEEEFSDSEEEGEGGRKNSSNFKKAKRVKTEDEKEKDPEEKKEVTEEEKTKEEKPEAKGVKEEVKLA

`CC(C)(C(=O)N1CCOCC1CNC(=O)c1ccc(-c2noc(C(F)(F)F)n2)cc1)n1cccn1` (stereo in doubt) [Example 101, N-(((3S)-4-(2-methyl-2-(1H-pyrazol-1-yl)propanoyl)morpholin-3-yl)methyl)-4-(5-(trifluoromethyl)-1,2,4-oxadiazol-3-yl)benzamide]: the inhibition at 1 µM at HDAC6 enzyme was 99%; on HDAC1 enzyme, 17%.

With `CCc1noc(C)c1C(=O)N1CCOCC1CNC(=O)c1ccc(-c2noc(C(F)(F)F)n2)cc1` (stereo in doubt) [Example 102, N-(((3S)-4-((3-ethyl-5-methyl-1,2-oxazol-4-yl)carbonyl)morpholin-3-yl)methyl)-4-(5-(trifluoromethyl)-1,2,4-oxadiazol-3-yl)benzamide], the results for the inhibition at 1 µM on HDAC6 enzyme and on HDAC1 enzyme were 99% and 50%, respectively.

With `O=C(NCC1COCCN1C(=O)C1(c2ccccc2)COC1)c1ccc(-c2noc(C(F)(F)F)n2)cc1` (stereo in doubt) [Example 103, N-(((3S)-4-((3-phenyloxetan-3-yl)carbonyl)morpholin-3-yl)methyl)-4-(5-(trifluoromethyl)-1,2,4-oxadiazol-3-yl)benzamide], the inhibition at 1 µM was 98% on HDAC6 enzyme and 35% on HDAC1 enzyme.

Turning to `O=C(NCC1COCCN1C(=O)C1CCNC1=O)c1ccc(-c2noc(C(F)(F)F)n2)cc1` (stereo in doubt) [Example 104, N-(((3S)-4-((2-oxopyrrolidin-3-yl)carbonyl)morpholin-3-yl)methyl)-4-(5-(trifluoromethyl)-1,2,4-oxadiazol-3-yl)benzamide], the inhibition at 1 µM on HDAC6 enzyme worked out at 57%; on HDAC1 enzyme it was 9%.

For the compound `O=C(NCC1COCCN1C(=O)C1CCNC1=O)c1ccc(-c2noc(C(F)(F)F)n2)cc1` (stereo in doubt) [Example 105, N-(((3S)-4-((2-oxopyrrolidin-3-yl)carbonyl)morpholin-3-yl)methyl)-4-(5-(trifluoromethyl)-1,2,4-oxadiazol-3-yl)benzamide], the “HDAC6 inhibitory rate (%) (1 μM)” value at HDAC6 enzyme (1 µM) is 76%. Also, the “HDAC1 inhibitory rate (%) (1 μM)” value on HDAC1 enzyme is 8%.

Turning to `CCn1nccc1C(=O)N1CCOCC1CNC(=O)c1ccc(-c2noc(C(F)(F)F)n2)cc1` (stereo in doubt) [Example 106, N-(((3S)-4-((1-ethyl-1H-pyrazol-5-yl)carbonyl)morpholin-3-yl)methyl)-4-(5-(trifluoromethyl)-1,2,4-oxadiazol-3-yl)benzamide], the values for the inhibition at 1 µM at HDAC6 enzyme and on HDAC1 enzyme were 98% and 51%, respectively.

With `O=C(NCC1COCCN1C(=O)c1ccccc1)c1ccc(-c2noc(C(F)(F)F)n2)cc1` (stereo in doubt) [Example 111, N-(((3R)-4-benzoylmorpholin-3-yl)methyl)-4-(5-(trifluoromethyl)-1,2,4-oxadiazol-3-yl)benzamide], the inhibition at 1 µM at HDAC6 enzyme stood at 101%; on HDAC1 enzyme it was 21%.

On to `O=C(NCC1COCCN1C(=O)c1cc(Cl)cc(Cl)c1)c1ccc(-c2noc(C(F)(F)F)n2)cc1` (stereo in doubt) [Example 112, N-(((3R)-4-(3,5-dichlorobenzoyl)morpholin-3-yl)methyl)-4-(5-(trifluoromethyl)-1,2,4-oxadiazol-3-yl)benzamide], for which the inhibition at 1 µM at HDAC6 enzyme was 97%; at HDAC1 enzyme, 16%.

In the case of `O=C(NCC1COCCN1C(=O)c1cccc(F)c1)c1ccc(-c2noc(C(F)(F)F)n2)cc1` (stereo in doubt) [Example 113, N-(((3R)-4-(3-fluorobenzoyl)morpholin-3-yl)methyl)-4-(5-(trifluoromethyl)-1,2,4-oxadiazol-3-yl)benzamide], the inhibition at 1 µM at HDAC6 enzyme stood at 97%. Besides, the “HDAC1 inhibitory rate (%) (1 μM)” value at HDAC1 enzyme was found to be 17%.

Consider `O=C(NCC1COCCN1C(=O)c1ccccc1N1CCOCC1)c1ccc(-c2noc(C(F)(F)F)n2)cc1` (stereo in doubt) [Example 118, N-(((3R)-4-(2-(morpholin-4-yl)benzoyl)morpholin-3-yl)methyl)-4-(5-(trifluoromethyl)-1,2,4-oxadiazol-3-yl)benzamide], for which the inhibition at 1 µM came out at 97% at HDAC6 enzyme and 17% at HDAC1 enzyme.

In the case of `O=C(NCC1COCCN1C(=O)c1cc(F)c(F)c(F)c1)c1ccc(-c2noc(C(F)(F)F)n2)cc1` (stereo in doubt) [Example 119, N-(((3R)-4-(3,4,5-trifluorobenzoyl)morpholin-3-yl)methyl)-4-(5-(trifluoromethyl)-1,2,4-oxadiazol-3-yl)benzamide], the values for the inhibition at 1 µM at HDAC6 enzyme and at HDAC1 enzyme were 97% and 11%, respectively.

On to `O=C(NCC1COCCN1C(=O)c1ccccc1)c1ccc(-c2noc(C(F)(F)F)n2)cc1` (centres unmarked) [Example 1, N-((4-benzoylmorpholin-3-yl)methyl)-4-(5-(trifluoromethyl)-1,2,4-oxadiazol-3-yl)benzamide], for which the inhibition at 1 µM at HDAC6 enzyme is 98%; on HDAC1 enzyme, 22%.

For the compound `O=C(NCC1COCCN1C(=O)c1ccccc1F)c1ccc(-c2noc(C(F)(F)F)n2)cc1` (centres unmarked) [Example 3], the values for the inhibition at 1 µM on HDAC6 enzyme and on HDAC1 enzyme were 99% and 19%, respectively.

On to `O=C(NCC1COCCN1C(=O)c1cccc(F)c1)c1ccc(-c2noc(C(F)(F)F)n2)cc1` (centres unmarked) [Example 4, N-((4-(3-fluorobenzoyl)morpholin-3-yl)methyl)-4-(5-(trifluoromethyl)-1,2,4-oxadiazol-3-yl)benzamide], for which the inhibition at 1 µM at HDAC6 enzyme amounted to 100%; on HDAC1 enzyme, 18%.

With `O=C(NCC1COCCN1C(=O)c1ccc(F)cc1)c1ccc(-c2noc(C(F)(F)F)n2)cc1` (centres unmarked) [Example 5, N-((4-(4-fluorobenzoyl)morpholin-3-yl)methyl)-4-(5-(trifluoromethyl)-1,2,4-oxadiazol-3-yl)benzamide], the inhibition at 1 µM on HDAC6 enzyme came to 99%; at HDAC1 enzyme, 21%.

`O=C(NCC1COCCN1C(=O)c1ccccc1Cl)c1ccc(-c2noc(C(F)(F)F)n2)cc1` (centres unmarked) [Example 6, N-((4-(2-chlorobenzoyl)morpholin-3-yl)methyl)-4-(5-(trifluoromethyl)-1,2,4-oxadiazol-3-yl)benzamide]: the inhibition at 1 µM is 111% on HDAC6 enzyme and 22% at HDAC1 enzyme.

Regarding `O=C(NCC1COCCN1C(=O)c1cccc(Cl)c1)c1ccc(-c2noc(C(F)(F)F)n2)cc1` (centres unmarked) [Example 7, N-((4-(3-chlorobenzoyl)morpholin-3-yl)methyl)-4-(5-(trifluoromethyl)-1,2,4-oxadiazol-3-yl)benzamide], the inhibition at 1 µM on HDAC6 enzyme was determined as 101%; on HDAC1 enzyme, 24%.

Take `O=C(NCC1COCCN1C(=O)c1ccc(Cl)cc1)c1ccc(-c2noc(C(F)(F)F)n2)cc1` (centres unmarked) [Example 8]: the inhibition at 1 µM at HDAC6 enzyme was 97%; at HDAC1 enzyme, 33%.

For the compound `Cc1ccccc1C(=O)N1CCOCC1CNC(=O)c1ccc(-c2noc(C(F)(F)F)n2)cc1` (centres unmarked) [Example 9, N-((4-(2-methylbenzoyl)morpholin-3-yl)methyl)-4-(5-(trifluoromethyl)-1,2,4-oxadiazol-3-yl)benzamide], the inhibition at 1 µM at HDAC6 enzyme was 99%; at HDAC1 enzyme, 21%.
